Reference: patent US20140005164A1, “WNT PATHWAY ANTAGONISTS” (Siena Biotech S.p.A., priority 2011, published 2014)

These compounds were tested on Wnt/β-catenin pathway (assay: Wnt reporter assay (TCF-Luciferase, Firefly) in DBTRG-05MG cells). Details: Homo sapiens, TCF-Luciferase (Firefly) read out, 24 hours after compound addition, range given with mixed units nM and μM, read-out: IC50 value in the reporter assay.
Type: cell-based
Protocol: Three copies of a 4×TCF responsive elements were cloned into the pcDNA3.1/Zeo(+) vector (Invitrogen) after deletion of the constitutive CMV promoter and the insertion of the Firefly Luciferase from Promega (phFL-TK) to measure the activity of the Wnt/β-catenin pathway. The resulting plasmid was sequenced for quality control.
Cells were grown in 20 μg/ml Zeocin and 20 μg/ml Zeocin plus 30 μg/ml Hygromicin respectively. The cells were plated at a density of 6500 cells/well in poly-D-lysine pre-treated 96 well-plates.
36 hours after plating cells were incubated with 8-points dilutions compound (0.6% DMSO (v/v)). Each compound was tested in triplicate in single plate. Luciferase detection was done with Dual-Luciferase Reporter Assay System (Promega). 24 hours after compound addition, media was removed and 30 μl of 1× lysis buffer was added to each well for 30 minutes. To each well 45 μl of Dual-Glo Luciferase reagent (Promega) were added and after 1 second delay Luciferase was detected for 1 second using Mithras LB940 instrument. After Firefly luciferase quantification 45 μl of Dual Stop & Glo reagent (Promega) were added to each well and […] Renilla was detected using the same parameters described before.
Data were expressed as % of control for Firefly and Renilla luciferase independently; values were calculated using XLFit version 4.2, with a four parameters sigmoid function (XLFit model 205).

IC50 [nM]	SMILES
35 to 23000	CC(=O)N1CCN(C(=O)[C@H]2CC[C@H](Cn3c(=O)n(C)c4ccc(CCCC#N)nc43)CC2)CC1 [Example 101]
35 to 23000	COc1ccc2c(c1)n(C[C@H]1CC[C@H](C(=O)Nc3nc4ccccc4s3)CC1)c(=O)n2C [Example 187]
35 to 23000	COc1ccc2c(c1)n(C[C@H]1CC[C@H](c3cc(-c4ccncc4)n[nH]3)CC1)c(=O)n2C [Example 13, 5-Methoxy-1-methyl-3-[trans-4-(5-pyridin-4-yl-2H-pyrazol-3-yl)-cyclohexylmethyl]-1,3-dihydro-benzoimidazol-2-one]
35 to 23000	COCCNc1ccc2c(c1)n(C[C@H]1CC[C@H](C(=O)Nc3ccncc3)CC1)c(=O)n2C [Example 78]
35 to 23000	COCCOc1cc2c(cc1F)n(C)c(=O)n2C[C@H]1CC[C@H](C(=O)Nc2ccnnc2)CC1 [Example 176]
35 to 23000	COc1ccc2c(c1)n(C[C@H]1CC[C@H](C(=O)N3CCN(c4cncnc4)CC3)CC1)c(=O)n2C [Example 20, 5-Methoxy-1-methyl-3-[trans-4-(4-pyrimidin-5-yl-piperazine-1-carbonyl)-cyclohexylmethyl]-1,3-dihydro-benzoimidazol-2-one]
35 to 23000	COCCNc1ccc2c(n1)n(C[C@H]1CC[C@H](C(=O)Nc3ccncc3)CC1)c(=O)n2C [Example 125]
35 to 23000	Cc1cc(NC(=O)[C@H]2CC[C@H](Cn3c(=O)n(C)c4cc(Cl)ccc43)CC2)ccn1 [Example 48]
35 to 23000	COc1ccc2c(c1)n(C[C@H]1CC[C@H](C(=O)N3CCC(C(C)=O)CC3)CC1)c(=O)n2C [Example 81]
35 to 23000	COCCOc1ccc2c(c1)n(C[C@H]1CC[C@H](C(=O)N3CC=C(c4cnn(C)c4)CC3)CC1)c(=O)n2C [Example 130]
35 to 23000	Cn1c(=O)n(C[C@H]2CC[C@H](C(=O)N3CCN(c4ncccn4)CC3)CC2)c2cc(Cl)ccc21 [Example 47]
35 to 23000	COCCOCCOc1ccc2c(c1)n(C[C@H]1CC[C@H](C(=O)Nc3ccncc3)CC1)c(=O)n2C [Example 129]
35 to 23000	COC/C=C/c1ccc2c(n1)n(C[C@H]1CC[C@H](C(=O)N3CCN(C(C)=O)CC3)CC1)c(=O)n2C [Example 4, 3-[Trans-4-(4-Acetyl-piperazine-1-carbonyl)-cyclohexylmethyl]-5-((E)-3-methoxy-propenyl)-1-methyl-1,3-dihydro-imidazo[4,5-b]pyridin-2-one]
35 to 23000	Cn1c(=O)n(C[C@H]2CC[C@H](C(=O)N3CCN(c4ncccn4)CC3)CC2)c2ccc(Cl)cc21 [Example 55]
35 to 23000	COc1ccc2c(c1)n(C[C@H]1CC[C@H](C(=O)N3CCC(c4cnccn4)CC3)CC1)c(=O)n2C [Example 83]
35 to 23000	COc1ccc2c(c1)n(C[C@H]1CC[C@H](c3nnc(-c4cc(C)nn4C)o3)CC1)c(=O)n2C [Example 149]
35 to 23000	COc1ccc2c(c1)n(C[C@H]1CC[C@H](C(=O)N3CCC(c4noc(C)n4)CC3)CC1)c(=O)n2C [Example 84]
35 to 23000	COc1ccc2c(c1)n(C[C@H]1CC[C@H](C(=O)Nc3cccc4ncccc34)CC1)c(=O)n2C [Example 188]
35 to 23000	Cn1c(=O)n(C[C@H]2CC[C@H](C(=O)Nc3ccncc3)CC2)c2nc(OCC3CCCCO3)ccc21 (stereo partly shown) [Example 168]
35 to 23000	COCCOc1ccc2c(n1)n(C[C@H]1CC[C@H](C(=O)N3CCN(c4cnn(C)c4)CC3)CC1)c(=O)n2C [Example 174]
35 to 23000	COc1ccc2c(c1)n(C[C@H]1CC[C@H](C(=O)Nc3ccncc3C)CC1)c(=O)n2C [Example 30]
35 to 23000	COCCOc1ccc2c(c1)n(C[C@H]1CC[C@H](C(=O)N3CCN(c4ccncc4)CC3)CC1)c(=O)n2C [Example 157]
35 to 23000	COc1ccc2c(c1)n(C[C@H]1CC[C@H](c3nnc(-c4ccn(C)n4)o3)CC1)c(=O)n2C [Example 110]
35 to 23000	COc1ccc2c(c1)n(C[C@H]1CC[C@H](C(=O)N3CCN(c4ccnc(OC)c4)CC3)CC1)c(=O)n2C [Example 91]
35 to 23000	Cn1cc(-c2nnc([C@H]3CC[C@H](Cn4c(=O)n(C)c5ccc(C#N)cc54)CC3)o2)cn1 [Example 162]
